# Laboratory results from patent publication US20230159489A1, “PHD INHIBITOR COMPOUNDS, COMPOSITIONS, AND USE” (Akebia Therapeutics, Inc., priority 2020, published 2023).
# Legend:
# full-length human PHD3 = target: T1, full-length human PHD3 (Homo sapiens, UniProt Q9H6Z9); test: TR-FRET assay, enzymatic IC50 against PHD3; type: biochemical; note: 35 nM PHD3
# T1 construct: 6-His (N); purchased Active Motif 81033; host or cells: E. coli
# Description: Recombinant human PHD3 protein (molecular weight 31.1 kDa) was purchased from Active Motif (Carlsbad, Calif., USA). It was expressed in E. coli as the full-length protein (NCBI accession number NP_071356.1) with an N-terminal 6-His tag (catalog #81033, Lot #24417001).
# full-length human PHD1 = target: T2, full-length human PHD1 (Homo sapiens, UniProt Q96KS0); test: TR-FRET assay, enzymatic IC50 against PHD1; type: biochemical; note: 15 nM PHD1
# T2 construct: FLAG (N); purchased Active Motif 81064; host or cells: baculovirus expression system
# Description: PHD1 was expressed in a baculovirus expression system as the full-length protein (NCBI accession number NP_542770.2) with an N-terminal FLAG tag (molecular weight 44.9 kDa).
# full-length human PHD2 = full-length human PHD2 (Homo sapiens, UniProt Q9GZT9); test: TR-FRET assay, enzymatic IC50 against PHD2
# Sequence of full-length human PHD2 (Q9GZT9 whole entry): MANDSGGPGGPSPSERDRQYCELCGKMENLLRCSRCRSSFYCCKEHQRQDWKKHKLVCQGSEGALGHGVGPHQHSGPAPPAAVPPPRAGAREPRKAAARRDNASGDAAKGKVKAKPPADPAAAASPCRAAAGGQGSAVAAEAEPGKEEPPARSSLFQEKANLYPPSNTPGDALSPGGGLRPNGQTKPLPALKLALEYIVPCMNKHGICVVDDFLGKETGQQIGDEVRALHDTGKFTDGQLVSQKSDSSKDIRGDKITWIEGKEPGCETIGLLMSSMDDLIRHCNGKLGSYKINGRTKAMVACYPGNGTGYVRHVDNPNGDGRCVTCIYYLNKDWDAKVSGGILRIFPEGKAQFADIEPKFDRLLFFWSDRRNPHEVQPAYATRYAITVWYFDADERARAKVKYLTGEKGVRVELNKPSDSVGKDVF
# T2 sequence (Q96KS0 whole entry): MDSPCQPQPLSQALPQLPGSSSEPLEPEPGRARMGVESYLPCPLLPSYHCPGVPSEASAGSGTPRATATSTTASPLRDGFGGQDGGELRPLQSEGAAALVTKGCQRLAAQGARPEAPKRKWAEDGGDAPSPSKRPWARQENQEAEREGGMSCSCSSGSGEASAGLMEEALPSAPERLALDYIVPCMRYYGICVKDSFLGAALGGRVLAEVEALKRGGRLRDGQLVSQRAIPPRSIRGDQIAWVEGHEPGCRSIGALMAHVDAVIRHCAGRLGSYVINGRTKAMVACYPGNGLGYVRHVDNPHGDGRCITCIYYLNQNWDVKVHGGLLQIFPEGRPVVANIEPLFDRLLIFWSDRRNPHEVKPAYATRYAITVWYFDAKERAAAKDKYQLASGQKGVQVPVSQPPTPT
# T1 sequence (Q9H6Z9 whole entry): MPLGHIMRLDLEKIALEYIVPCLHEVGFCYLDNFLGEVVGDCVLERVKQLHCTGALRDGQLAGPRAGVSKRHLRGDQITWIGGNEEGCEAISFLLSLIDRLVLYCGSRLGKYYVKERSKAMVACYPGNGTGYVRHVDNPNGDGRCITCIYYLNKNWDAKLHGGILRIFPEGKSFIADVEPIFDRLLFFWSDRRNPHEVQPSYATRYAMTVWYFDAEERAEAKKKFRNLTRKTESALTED
IC50 (full-length human PHD3) [nM],IC50 (full-length human PHD1) [nM],IC50 (full-length human PHD2) [nM],Structure (SMILES)
100 to 1000,< 100,< 100,"Cc1nn(-c2ccc(S(C)(=O)=O)cn2)c(O)c1-c1ccc(Cl)cc1 [Compound 1, 4-(4-chlorophenyl)-3-methyl-1-(5-(methylsulfonyl)pyridin-2-yl)-1H-pyrazol-5-ol]"
< 100,< 100,< 100,"Cc1cc(C#N)ccc1-c1c(C)nn(-c2ccc(S(C)(=O)=O)cn2)c1O [Compound 2, 4-(5-hydroxy-3-methyl-1-(5-(methylsulfonyl)pyridin-2-yl)-1H-pyrazol-4-yl)-3-methylbenzonitrile]"
1000 to 10000,< 100,< 100,"CCc1nn(-c2ccc(S(C)(=O)=O)cn2)c(O)c1-c1ccc(C#N)cc1 [Compound 4, 4-(3-ethyl-5-hydroxy-1-(5-(methylsulfonyl)pyridin-2-yl)-1H-pyrazol-4-yl)benzonitrile]"
100 to 1000,< 100,< 100,"Cc1nn(-c2ccc(N3CCCC3=O)cn2)c(O)c1-c1ccc(C#N)cc1 [Compound 7, 4-(5-hydroxy-3-methyl-1-(5-(2-oxopyrrolidin-1-yl)pyridin-2-yl)-1H-pyrazol-4-yl)benzonitrile]"
100 to 1000,< 100,< 100,"Cc1nn(-c2ccc(S(=O)(=O)c3ccccc3)cn2)c(O)c1-c1ccc(C#N)cc1 [Compound 8, 4-(5-hydroxy-3-methyl-1-(5-(phenylsulfonyl)pyridin-2-yl)-1H-pyrazol-4-yl)benzonitrile]"
< 100,< 100,< 100,"CN=S(C)(=O)c1ccc(-n2nc(C)c(-c3ccc(C#N)cc3)c2O)nc1 (centres unmarked) [Compound 15, 4-(1-(5-(N,S-dimethylsulfonimidoyl)pyridin-2-yl)-5-hydroxy-3-methyl-1H-pyrazol-4-yl)benzonitrile]"
< 100,< 100,< 100,"Cc1nn(-c2ccc(S(=N)(=O)C3CCC3)cn2)c(O)c1-c1ccc(C#N)cc1 (centres unmarked) [Compound 34, 4-(1-(5-(cyclobutanesulfonimidoyl)pyridin-2-yl)-5-hydroxy-3-methyl-1H-pyrazol-4-yl)benzonitrile]"
,< 100,< 100,"CNS(=O)(=O)Nc1ccc(-n2nc(C)c(-c3ccc(C#N)cc3)c2O)nc1 [Compound 51, N-(6-(4-(4-cyanophenyl)-5-hydroxy-3-methyl-1H-pyrazol-1-yl)pyridin-3-yl)-N′-methylsulfamide]"
,< 100,< 100,"Cc1nn(-c2ccc(NS(=O)(=O)N(C)C)cn2)c(O)c1-c1ccc(C#N)cc1 [Compound 52, N-(6-(4-(4-cyanophenyl)-5-hydroxy-3-methyl-1H-pyrazol-1-yl)pyridin-3-yl)-N′-dimethylsulfamide]"
,< 100,< 100,"Cc1nn(-c2ccc(-c3ncco3)cn2)c(O)c1-c1ccc(C#N)cc1 [Compound 59, 4-(5-Hydroxy-3-methyl-1-(5-(oxazol-2-yl)pyridin-2-yl)-1H-pyrazol-4-yl)benzonitrile]"
,< 100,100 to 1000,"Cc1nn(-c2ccc(-c3nccs3)cn2)c(O)c1-c1ccc(C#N)cc1 [Compound 60, 4-(5-Hydroxy-3-methyl-1-(5-(thiazol-2-yl)pyridin-2-yl)-1H-pyrazol-4-yl)benzonitrile]"
,< 100,> 10000,"Cc1nn(-c2ccc(-c3ncc(-c4ccccc4)s3)cn2)c(O)c1-c1ccc(C#N)cc1 [Compound 61, 4-(5-Hydroxy-3-methyl-1-(5-(5-phenylthiazol-2-yl)pyridin-2-yl)-1H-pyrazol-4-yl)benzonitrile]"
,< 100,100 to 1000,"Cc1nn(-c2ccc(-n3cc(-c4ccccc4)cn3)cn2)c(O)c1-c1ccc(C#N)cc1 [Compound 64, 4-(5-Hydroxy-3-methyl-1-(5-(4-phenyl-1H-pyrazol-1-yl)pyridin-2-yl)-1H-pyrazol-4-yl)benzonitrile]"
,< 100,< 100,"Cc1cc(-n2nc(C)c(-c3ccc(C#N)cc3)c2O)ncc1[S@@](=N)(=O)C1CC1 [Compound 68, (S)-4-(1-(5-(cyclopropanesulfonimidoyl)-4-methylpyridin-2-yl)-5-hydroxy-3-methyl-1H-pyrazol-4-yl)benzonitrile]"
,< 100,< 100,"Cc1cc(-n2nc(C)c(-c3ccc(C#N)cc3)c2O)ncc1[S@](=N)(=O)C1CC1 [Compound 69, (R)-4-(1-(5-(cyclopropanesulfonimidoyl)-4-methylpyridin-2-yl)-5-hydroxy-3-methyl-1H-pyrazol-4-yl)benzonitrile]"

# Continued, compound first:
Structure (SMILES),IC50 (full-length human PHD3) [nM],IC50 (full-length human PHD1) [nM],IC50 (full-length human PHD2) [nM]
"Cc1nn(-c2ccc(S(C)(=O)=O)cn2)c(O)c1-c1ccc(C#N)cc1 [Compound 3, 4-(5-hydroxy-3-methyl-1-(5-(methylsulfonyl)pyridin-2-yl)-1H-pyrazol-4-yl)benzonitrile]",< 100,< 100,< 100
"CS(=O)(=O)c1ccc(-n2nc(C3CC3)c(-c3ccc(C#N)cc3)c2O)nc1 [Compound 5, 4-(3-cyclopropyl-5-hydroxy-1-(5-(methylsulfonyl)pyridin-2-yl)-1H-pyrazol-4-yl) benzonitrile]",> 10000,100 to 1000,1000 to 10000
"Cc1nn(-c2ccc(NS(C)(=O)=O)cn2)c(O)c1-c1ccc(C#N)cc1 [Compound 6, N-(6-(4-(4-cyanophenyl)-5-hydroxy-3-methyl-1H-pyrazol-1-yl)pyridin-3-yl) methanesulfonamide]",< 100,< 100,< 100
"CCC(=O)Nc1ccc(-n2nc(C)c(-c3ccc(C#N)cc3)c2O)nc1 [Compound 9, N-(6-(4-(4-cyanophenyl)-5-hydroxy-3-methyl-1H-pyrazol-1-yl)pyridin-3-yl)propionamide]",100 to 1000,< 100,< 100
"Cc1nn(-c2ccc(C(=O)C(C)C)cn2)c(O)c1-c1ccc(C#N)cc1 [Compound 10, 4-(5-hydroxy-1-(5-isobutyrylpyridin-2-yl)-3-methyl-1H-pyrazol-4-yl)benzonitrile]",100 to 1000,< 100,< 100
"Cc1nn(-c2ccc(S(N)(=O)=O)cn2)c(O)c1-c1ccc(C#N)cc1 [Compound 11, 6-(4-(4-cyanophenyl)-5-hydroxy-3-methyl-1H-pyrazol-1-yl)pyridine-3-sulfonamide]",< 100,< 100,< 100
"Cc1nn(-c2ccc([S+](C)[O-])cn2)c(O)c1-c1ccc(C#N)cc1 (centres unmarked) [Compound 12, 4-(5-hydroxy-3-methyl-1-(5-(methylsulfinyl)pyridin-2-yl)-1H-pyrazol-4-yl)benzonitrile]",< 100,< 100,< 100
"Cc1nn(-c2ccc(S(C)(=N)=O)cn2)c(O)c1-c1ccc(C#N)cc1 (centres unmarked) [Compound 13, 4-(5-hydroxy-3-methyl-1-(5-(S-methylsulfonimidoyl)pyridin-2-yl)-1H-pyrazol-4-yl)benzonitrile]",100 to 1000,< 100,< 100
"Cc1nn(-c2ccc(C(=O)NS(C)(=O)=O)cn2)c(O)c1-c1ccc(C#N)cc1 [Compound 27, 6-(4-(4-cyanophenyl)-5-hydroxy-3-methyl-1H-pyrazol-1-yl)-N-(methylsulfonyl)nicotinamide]",< 100,< 100,< 100
"Cc1nn(-c2cc(C3CC3)c(S(C)(=O)=O)cn2)c(O)c1-c1ccc(C#N)cc1 [Compound 53, 4-(1-(4-cyclopropyl-5-(methylsulfonyl)pyridin-2-yl)-5-hydroxy-3-methyl-1H-pyrazol-4-yl)benzonitrile]",,< 100,< 100
"Cc1nn(-c2ccc(-c3nc(-c4ccccc4)cs3)cn2)c(O)c1-c1ccc(C#N)cc1 [Compound 62, 4-(5-Hydroxy-3-methyl-1-(5-(4-phenylthiazol-2-yl)pyridin-2-yl)-1H-pyrazol-4-yl)benzonitrile]",,100 to 1000,> 10000
"Cc1nn(-c2ccc(-n3cccn3)cn2)c(O)c1-c1ccc(C#N)cc1 [Compound 63, 4-(1-(5-(1H-pyrazol-1-yl)pyridin-2-yl)-5-hydroxy-3-methyl-1H-pyrazol-4-yl)benzonitrile]",,< 100,100 to 1000
"Cc1nn(-c2ccc([S@@](=N)(=O)C3CC3)cn2)c(O)c1-c1ccc(Cl)cc1 [Compound 65, (S)-(6-(4-(4-chlorophenyl)-5-hydroxy-3-methyl-1H-pyrazol-1-yl)pyridin-3-yl)(cyclopropyl)(imino)-λ^6-sulfanone]",,< 100,< 100
"Cc1nn(-c2ccc([S@](=N)(=O)C3CC3)cn2)c(O)c1-c1ccc(Cl)cc1 [Compound 66, (R)-(6-(4-(4-chlorophenyl)-5-hydroxy-3-methyl-1H-pyrazol-1-yl)pyridin-3-yl)(cyclopropyl)(imino)-λ^6-sulfanone]",,< 100,< 100
"Cc1nn(-c2ccc(NS(C)(=O)=O)cn2)c(O)c1-c1ccc(Cl)cc1 [Compound 67, N-(6-(4-(4-chlorophenyl)-5-hydroxy-3-methyl-1H-pyrazol-1-yl)pyridin-3-yl)methanesulfonamide]",,< 100,< 100
"Cc1cc(-n2nc(C)c(-c3ccc(C#N)cc3)c2O)ncc1S(=O)(=O)Nc1ccccc1 [Compound 70, 6-(4-(4-cyanophenyl)-5-hydroxy-3-methyl-1H-pyrazol-1-yl)-4-methyl-N-phenylpyridine-3-sulfonamide]",,< 100,100 to 1000
"Cc1cc(-n2nc(C)c(-c3ccc(C#N)cc3)c2O)ncc1S(=O)(=O)NC1CC1 [Compound 71, 6-(4-(4-cyanophenyl)-5-hydroxy-3-methyl-1H-pyrazol-1-yl)-N-cyclopropyl-4-methylpyridine-3-sulfonamide]",,< 100,< 100
